Source: patent US20240391872A1, “PHENOXY-ACETYL-THIOUREIDO-BENZENESULFONAMIDE DERIVATIVES, AND THEIR USES” (priority 2021, published 2024)
“Also recorded” adds a separate entry of the source. Where two headings read alike, the source gives them in different places.

Columns and labels:
endoplasmic reticulum = experiment: Confocal imaging of ER morphology and compound localization in Huh7.5.1 cells; format: cell-based, human; settings: 50 μM, 6 h, Calnexin staining
Protocol: FIG. 15 Huh7.5.1 cells were treated with 25 µM of RG10-Rhod or free Rhodamine for 3 h. Cells were fixed and stained using an anti-Calnexin antibody as a marker for ER membranes and DAPI for nuclear staining. One channel corresponds to rhodamine fluorescence. The micrographs show the individual channels and merge that have been acquired using confocal microscopy and processed using ImageJ. Scale bar=10 μm.
FIG. 17 Huh.7.5.1 cells were treated with 50 μM of RG10 for 6 h and then were processed for confocal imaging.
Cells were then fixed and stained using an anti-Calnexin antibody as a marker for ER membranes and DAPI for nuclear staining. The micrographs show the individual channels and merge that have been acquired using confocal microscopy and processed using ImageJ. Scale bar=10 μm.
Cells grown on #1.5 glass coverslips were fixed with 4% PFA for 15 min. Cells were then permeabilized with 0.1% Triton X100 and saturated with 0.2% BSA. Then, primary antibody incubation was performed for 1 h. After a series of PBS washes, secondary antibodies were added for 30 min. DAPI staining was performed for 10 min to obtain nuclear staining. Coverslips were mounted on glass slides using Mowiol mounting media. Images were acquired using a Leica SP5 confocal microscope.

sXBP-1 = experiment: ER stress mediator RNA levels by RT-qPCR in Huh7.5.1 cells; format: cell-based, human
sXBP1 = sXBP1 RNA levels in HAE cells infected with CoV2; format: cell-based, human; settings: 10 μM, CoV2 MOI 0.01, 4 days
Protocol: FIG. 36 HAE cells were treated with 10 μM of RG10 and Remdesivir and then infected with wild type CoV2 at MOI 0.01 for 4 days. Graphs show relative sXBP1 RNA levels normalized with GAPDH RNA expression.
(§1) Cells were lysed and RNA immediately extracted using the Luna Cell Ready Lysis Module according to the manufacturer's protocol (New England Biolabs). RT-qPCR on extracted RNA was performed using the Luna One-Step RT-qPCR Kit (New England Biolabs). The samples were analyzed using a Lightcycler 480 instrument (Roche) using the following thermal cycle: Reverse transcription step at 55° C. for 15 min, initial denaturation at 95° C. for 2 min. Then, 40 cycles were programmed consisting of 15 s of denaturation at 95° C. followed by 30 s of annealing/extension at 55°. Fluorescent data collection was performed at the end of each cycle. SARS-CoV-2 viral RNA was detected using the N1 probe that targets specifically the N protein. For normalization, primers targeting Rpl27 or GAPDH were utilized.

[1] = Cytotoxicity, LDH release assay; format: cell-based
HCoV-229E-Renilla = format: cell-based, human coronavirus 229E
SARS-CoV-2 [2] = experiment: microbe, parasite or virus in culture; format: cell-based
SARS-CoV-2 [3] = experiment: Time-of-addition experiment, CoV2 in Vero E6 cells; format: cell-based
SARS-CoV-2 [4] = experiment: microbe, parasite or virus in culture; format: cell-based; settings: for IC50: SARS-CoV-2 MOI 0.01, 48 h, vRNA RT-qPCR; for antiviral activity (relative SARS-CoV-2 vRNA levels): MOI 0.01, 48 h, indicated concentrations
SARS-CoV-2 [5] = experiment: SARS-CoV-2 infection of human airway epithelia (HAE); format: cell-based; settings: 10 μM; for viral RNA by RT-qPCR: wild type CoV2 MOI 0.01, 4 days
Protocol: (§2) FIG. 33 HAE cells were either untreated (Mock) or treated with 10 μM of RG10 and then infected with SARS-CoV-2 mNeonGreen virus at MOI 0.1. After 4 days, cells were fixed and stained for CoV2 spike protein and actin filaments (phalloidin staining). Z-stack images were acquired using a confocal microscope and processed using ImageJ to produce an average intensity image for each individual channel. Scale bar=20 μm.
as §2, with “34” for “33”
FIG. 35 3D representation of the images from [FIG. 33] and [FIG. 34] using the Imaris software. Scale bar=20 μm.
FIG. 37 Same samples from [FIG. 36] were processed to measure by RT-qPCR, relative vRNA levels normalized by Rpl27 RNA expression. The bars are means+/−SD from two pooled independent experiments. Student's t-test **p value<0.01; ***p value<0.005; ****p value<0.001.
FIG. 42 HAE cells were treated with 10 μM of RG10, RG10b, and Remdesivir and then infected for 4 days with CoV2 at MOI 0.01. Cells were then processed for RNA extraction and RT-qPCR experiments. […] Student's t-test *p value<0.05 **p value<0.01; ***p value<0.005.
Huh7.5.1 (Zhong J. et al. (2005) Proceedings of the National Academy of Sciences of the United States of America 102:9294-9), Vero E6 (ECACC #85020206), Caco2, and HEK 293T cells were cultured in DMEM GlutaMAX (Thermo Fisher Scientific) supplemented with 10% fetal calf serum and penicillin-streptomycin (500 μg/ml; GIBCO). HAE cells (Epithelix) were cultured in Mucilair media at the basal side and maintained at air-liquid interface. Apical washes were performed each 2-3 days by temporarily adding Mucilair media for 30 minutes. All cell types were maintained at 37° C. in a 5% CO2 atmosphere.
as §1, with “For normalization, primers targeting Rpl27 or GAPDH were utilized.” left out

N-mRuby3 CoV2 = experiment: Live cell imaging and tracking of N-mRuby3 CoV2 particles in Huh7.5.1 cells; format: cell-based, SARS-CoV-2
SARS-CoV-2 [6] = format: cell-based; settings: Caco2 cells, 10 μM, MOI 0.01, 48 h
ZIKV = format: cell-based, Zika virus; settings: MOI 0.3, 24 h
Vero E6 cells = settings: cited from earlier work
[7] = infected non-human primates; cited from earlier work
[8] = Pharmacokinetics experiments in mice; format: in vivo; settings: blood
Text: (§3) The low potency of RG10 in HAE could be attributed to its weak stability and therefore, the inventor designed a novel RG10 derivative, which the inventor called RG10b. This derivative harbors a modification shielding a molecular weakness present in RG10.

[9] = Innocuity assessment in mice (weight); format: in vivo; settings: concentrations up to 10 mg/kg
Text: Two mice were used per condition.
as §3

[10] = Huh 7.5.1 cells, 10 μM, MOI 0.01, 48 h
[11] = Huh7.5.1 cells, 10 μM, MOI 0.5, 48 h
[12] = Severe acute respiratory syndrome coronavirus 2, Vero C1008, Vero E6 cells
[13] = Huh 7.5.1 cells, 25 μM, MOI 0.01, 48 h

COc1ccc(OCCNC(=S)Nc2ccc(S(=O)(=O)NC3CCCCC3)cc2)cc1 [RG10]
ER morphology (endoplasmic reticulum): perturbed ER morphology | sXBP-1 RNA levels (sXBP-1; 10 μM): no difference was observed between RG10 and RG7 | sXBP-1 RNA levels (sXBP-1; 50 μM, 6 h): enriched | sXBP-1 RNA levels (sXBP1): upregulated | cytotoxicity [1]: did not show cytotoxicity at working concentrations | cytotoxicity ([1]; LDH release, working concentrations): very low cytotoxicity compared to Latrunculin, jasplakinolide and cytocalasin D | antiviral activity against HCoV-229E (HCoV-229E-Renilla): significant antiviral activity, although potency was lower | CoV2 antiviral activity (relative vRNA levels) (SARS-CoV-2 [2]; [10]): high CoV2 antiviral activity | neosynthesized Spike protein, Western blot (SARS-CoV-2 [2]; [11]): could barely be detected | viral RNA synthesis, dsRNA immunolabeling (SARS-CoV-2 [2]; [11]): prevents viral RNA synthesis | viral protein synthesis, microscopy and flow cytometry (SARS-CoV-2 [2]; [11]): prevent viral protein synthesis | potency at high multiplicity of infection (SARS-CoV-2 [2]; Huh7.5.1 cells, 10 μM, indicated MOI, 48 h): retained potency at high multiplicity of infection (MOI) similar to Rem | EC50 (SARS-CoV-2 [2]; Severe acute respiratory syndrome coronavirus 2, Huh-7.5.1, potency in Huh7.5.1 cells (FIG. 3)): ~1500 nM | antiviral activity, vRNA levels, RG10 Pre (SARS-CoV-2 [3]; Vero E6, MOI 0.1, 10 μM during the first 4 h of infection and washed-out): no antiviral activity when incubated only during virus entry | vRNA expression levels, RG10 Post (SARS-CoV-2 [3]; Vero E6, MOI 0.1, 10 μM starting at 4 h post-infection): significantly decreased vRNA expression levels | viral N protein and dsRNA levels by flow cytometry, entry steps (SARS-CoV-2 [3]; Vero E6, MOI 0.1, 10 μM, 24 h): some inhibition was also observed at the entry steps | viral N protein and dsRNA levels by flow cytometry, post entry (SARS-CoV-2 [3]; Vero E6, MOI 0.1, 10 μM, 24 h): strong antiviral activity post entry | IC50 (SARS-CoV-2 [4]; [12]): 1550 nM | antiviral activity (relative SARS-CoV-2 vRNA levels) (SARS-CoV-2 [4]; Vero E6 cells): potent antiviral molecule with similar activity levels as Remdesivir; also recorded: high CoV2 antiviral activity | HAE viability (SARS-CoV-2 [5]; 4 days): viability was similar | viral infection, fluorescent mNeonGreen virus (SARS-CoV-2 [5]; MOI 0.1, 4 days): decreases viral infection | viral RNA by RT-qPCR (SARS-CoV-2 [5]): decreased by RG10, although the extent of the decrease was much lower than Remdesivir treatment | mean particle speed of virus (N-mRuby3 CoV2): slowed down virus movement to the ER | CoV2 antiviral activity (relative vRNA levels) (SARS-CoV-2 [6]): high CoV2 antiviral activity | antiviral activity against ZIKV (relative vRNA levels) (ZIKV; Vero E6, 10 μM): no detectable effect on ZIKV; also recorded: unable to inhibit ZIKV replication

O[C@@H](CS)[C@@H](O)CS [DTT, reference compound]
sXBP-1 RNA levels (sXBP-1; 1 mM, 6 h, positive control of ER stress): enriched

COc1ccc(N2CCCC(NC(=S)Nc3ccc(S(=O)(=O)NC4CCCCC4)cc3)C2)cc1 (stereo not drawn) [RG27-8]
antiviral activity (relative SARS-CoV-2 vRNA levels) (SARS-CoV-2 [2]; [10]): cannot be observed | antiviral activity (relative SARS-CoV-2 vRNA levels) (SARS-CoV-2 [2]; [13]): harbor also an antiviral activity

NC(=O)c1nc(F)c[nH]c1=O [favipiravir]
potency in vitro (Vero E6 cells; in vitro): very low potency in vitro

CCN(CCO)CCCC(C)Nc1ccnc2cc(Cl)ccc12 (stereo not drawn) [Hydroxychloroquine]
viral loads [7]: does not decrease the viral loads | EC50 (Vero E6 cells; Vero E6 cells): ~2000 nM

COc1ccc(N2CCC(NC(=S)Nc3ccc(S(=N)(=O)NC4CCCCC4)cc3)C2)cc1 (stereo not drawn) [RG27-1]
antiviral activity (relative SARS-CoV-2 vRNA levels) (SARS-CoV-2 [2]; [10]): cannot be observed | antiviral activity (relative SARS-CoV-2 vRNA levels) (SARS-CoV-2 [2]; [13]): harbor also an antiviral activity

COc1ccc(N2CCC(NC(=S)Nc3ccc(S(=O)(=O)NC4CCCCC4)cc3)C2)cc1 (stereo not drawn) [RG10b]
half-life relative to RG10 [8]: more than 3 fold | half-life ([8]; mouse, read-out: pharmacokinetic half-life / stability in vivo): > 2 h | innocuity / toxicity in mice [9]: well supported by mice at concentrations up to 10 mg/kg; also recorded: no toxicity observed | EC50 (SARS-CoV-2 [4]; Severe acute respiratory syndrome coronavirus 2, Vero C1008, Vero E6 cells, CoV2 48 h (FIGS. 38 and 39)): < 1000 nM | IC50 (SARS-CoV-2 [4]; [12]): ~990 nM | antiviral activity (relative SARS-CoV-2 vRNA levels) (SARS-CoV-2 [4]; Vero E6 cells): more potent than RG10 | viral RNA by RT-qPCR (SARS-CoV-2 [5]): more potent than RG10, showing antiviral activity similar to Remdesivir

Tunicamycin [reference compound]
antiviral activity against CoV2 (relative vRNA levels) (SARS-CoV-2 [4]): active against both viruses | antiviral activity against ZIKV (relative vRNA levels) (ZIKV; Vero E6, 1 μM): active against both viruses
